Patent publication US20090232735A1, “USE OF FRUCTOSE-BASED THERAPIES FOR THE TREATMENT OF CANCER” (CEDARS-SINAI MEDICAL CENTER, priority 2005, published 2009)

Columns and labels:
Format in all cases: cell-based, human
[1] = tested on: proliferating cell nuclear antigen (PCNA); experiment: PCNA Western blot in PANC-1 cells; conditions: PANC-1, 5.5 mM sugar, 48 h, compared to 2 mM glucose
Method: FIG. 19 depicts PCNA expression in accordance with an embodiment of the present invention. PANC-1 cells were plated in 2 mM, and 5.5 mM glucose, or 5.5 mM fructose for 48 h, after which proliferating cell nuclear antigen (PCNA) levels were measured by Western blot analysis.
Additionally, protein extracts were harvested in RIPA buffer from the PANC-1 cells following 2 mM, 5.5 mM glucose-, and fructose-treatment for 48 h, analyzed by Western blot, and immunoblotted using a specific monoclonal antibody to proliferating cell nuclear antigen (PCNA).

[2] = tested on: ER positive MCF-7 breast cancer cells; experiment: Breast cancer cell proliferation (MTT assay), MCF-7
Method: Estrogen receptor (ER) positive MCF-7, and ER negative MDA-MB231 cells were plated in 5 mM fructose or glucose for times between 8-72 h, and proliferative rates measured using MTT assay. *, p<0.05; **, p<0.01.
FIG. 5 depicts fructose-mediated increased breast cancer proliferation in accordance with an embodiment of the present invention. ER positive MCF-7, and ER negative MDA-MB231 cells were plated in a range of fructose or glucose concentrations (5-25 mM) for 72 h, after which proliferative rates were measured using an MTT assay. *, p<0.05 for concentrations between 5-25 mM fructose versus glucose.
Standard media for breast cancer cell culture contain either 5-7 mM (low) and 12-25 mM (high) glucose concentrations. Estrogen receptor (ER) positive MCF-7, and ER negative MDA-MB231 cells were cultured overnight in 2 mM glucose standard DMEM medium containing 10% fetal bovine serum prior to incubation for periods between 8, and 72 hours in standard DMEM medium containing 10% fetal bovine serum, and 5 mM glucose or 5 mM fructose.
Proliferative rates were then measured in replicate (minimum of 6) aliquot wells of the breast cancer cells grown in glucose, or fructose containing medium. […] In separate experiments, proliferative rates of the MCF-7, and MDA-MB231 breast cancer cells were compared following culture in a range of fructose, and glucose concentrations (2-25 mM) for 72 hours.

[3] = tested on: AP-1 activation in a primary culture of a pancreatic tumor; experiment: AP-1 probe binding assay, primary pancreatic tumor culture; conditions: 5.5 mM sugar
Method: FIG. 24 depicts luciferase activity of PANC-1 cells and primary culture of surgically resected pancreatic tumor cells in accordance with an embodiment of the present invention. PANC-1 pancreatic cancer cells and a primary culture of a surgically resected pancreatic tumor were incubated in 2 mM glucose, 5.5 mM glucose or 5.5 mM fructose for 48 h, after which nuclear extracts were incubated with a biotinylated AP-1 probe, and detected by an antibody-linked colorimetric method. *, p<0.01
In separate experiments PANC-1 cells, and primary cultures of surgically resected pancreatic tumors were incubated in 2 mM glucose, or 5.5 mM glucose or 5.5 mM fructose for 48 h, after which nuclear extracts were incubated with a biotinylated AP-1 probe in binding buffer. AP-1/AP1 probe complexes were next conjugated to a streptavidin-coated assay plate and detected using an AP-1 specific antibody, followed by binding of a horseradish-peroxidase conjugated secondary antibody, and detection by a colorimetric reagent.

[4] = tested on: PANC-1 pancreatic cancer cells; experiment: FACS cell cycle profile of PANC-1 cells; conditions: PANC-1, 5.5 mM sugar, 48 h
Method: FIG. 15 depicts in the G0/G1 phase and the DNA synthesis (S) phase of pancreatic cells in glucose and fructose in accordance with an embodiment of the present invention. PANC-1 cells were plated in 2, and 5.5 mM glucose or 5.5 mM fructose for 48 h, after which cells were fixed in methanol, nuclei were stained with propidium iodide, and aliquots subjected to FACS analyzes.
This first result intrigued the inventors, but given there is little documentation regarding physiological fructose concentrations, the inventors first considered that the “apparent” pro-proliferative effects of fructose were simply a consequence of the highly stylized in vitro experimental conditions, and that if the pancreatic cancer cells were cultured in higher glucose concentrations, this would result in similar proliferative rates to those the inventors observed following culture in 5.5 mM fructose. Therefore, in the next experiments, the inventors compared proliferative rates of the PANC-1 pancreatic cancer cells following culture for 72 h in a range of fructose, and glucose concentrations (2-25 mM). This timepoint was chosen as the inventors had seen maximal pancreatic cancer cell proliferation in 5.5 mM fructose at 72 h. […] While not wishing to be bound by any particular theory, the inventors believe that this latter finding may be because the PANC-1 cells are proliferating at close to maximal capacity by 72 h, once they are exposed to comparatively low fructose concentrations (5 mM). MTS assay was employed to measure pancreatic cancer cell proliferative rates, which utilizes mitochondrial oxidation to quantify cell proliferation. As the inventors were examining carbohydrate-mediated effects, the inventors considered the change observed in proliferative rates, as measured by this assay, simply reflected changes in mitochondrial oxidation. Therefore, two additional methods were utilized to examine proliferative rates following fructose-treatment. […]

[5] = tested on: MAPK pathway (pERK, pRSK, pMEK); experiment: Western blot of MAPK pathway in PANC-1 cells; conditions: PANC-1, 5.5 mM sugar, 48 h
Method: FIG. 23 depicts Western blot analysis examining MAPK pathway expression in accordance with an embodiment of the present invention. PANC-1 pancreatic cancer cells were incubated in 2 mM glucose, 5.5 mM glucose or 5.5 mM fructose for 48 hours, after which Western blot analysis on total protein lysates was employed to examine phosphorylated MEK (pMEK), pRSK, and pCREB, and corresponding total MEK, RSK, and CREB levels.
Several signal transduction pathways may be involved in fructose-mediated pancreatic cancer growth but given the importance of the MAPK pathway in proliferation, the inventors believed that MAPK was involved. In the MAPK pathway, MEK mediated phosphorylation of the p44/42 MAP kinase (ERK) is the first step in this cascade, which results in phosphorylation of p90^Rsk, leading to transcriptional activation of CREB, and AP1, activating gene transcription and promoting cellular growth. The inventors employed Western blot analysis to examine MAPK pathway expression in pancreatic cancer cells incubated in 2 mM glucose, 5.5 mM glucose, and 5.5 mM fructose for 48 hours. Levels of the active phosphorylated proteins, pERK, pRSK, and pMEK were normalized to total ERK, RSK, and MEK levels respectively, and compared between the fructose-, and glucose-treated PANC-1 cells.

With `O=C(CO)[C@@H](O)[C@H](O)[C@H](O)CO` [fructose] the PCNA expression [1] was “highest PCNA levels”, the “proliferative rates in fructose compared to glucose” value ([2]; MCF-7, 5 mM fructose vs 5 mM glucose, 8-72 h) was “higher proliferative rates” and the “proliferative rates in 5 mM fructose compared to 25 mM glucose” value ([2]; MCF-7, 72 hours, 5 mM fructose vs 5-fold higher glucose (25 mM)) was “higher proliferative rates”. For the same compound, the “increase in AP-1 activation compared to 2 mM glucose” value [3] was 2.1 fold, the “increase of cells in S-phase in comparison to 2 mM glucose” value [4] was roughly 17% and the “percentage of cells in S-phase” value [4] was 47%. For the same compound, the “percentage of cells in resting G0/G1” value [4] was 21.2% and the “pERK, pRSK, and pMEK expression” value [5] was “highest pERK, pRSK, and pMEK expression”.
